Consider 9 molecules from patent US9238670B2, “Aminoglycoside antibiotics with reduced ototoxicity” (priority 2013, dated 2016).

Read-outs that look alike come from different tables or passages of the source.

The subject of data set [1] is hair cells of cochlea organ of corti cultures. Kind of data set: in vitro. As to the method: For example, an ototoxicity test that can be used includes the steps of (1) treating organ of corti cultures with a compound of the invention and a parent aminoglycoside compound for a certain period of time (e.g., 1 hour), respectively; (2) washing and then culturing the treated tissue for some period of time (e.g., 2 days); (3) fixing and staining the tissue so that hair cell counts can be obtained; and (4) comparing the hair cell counts between the tissue treated by the compound of the invention and the tissue treated by the parent aminoglycoside compound.
Ototoxicity was also assayed using cochlea organ of corti cultures. The cultures were made at 4 days post birth (P4), cultured for 1 day and then treated for 1 hour with test compound. The tissue was then washed and cultured for an additional two days at which time the tissue is fixed and stained so that hair cell counts could be obtained. This method is similar to that used previously in characterizing aminoglycoside ototoxicity (Alharazneh et al., 2011). Fixed regions at the apex, middle, and base of the cochlea were imaged and cell counts obtained. […] Data were quantified across cochlear regions for this same compound. Quantification was by counting the number of outer hair cells present over a given distance. […] A dose response curve was created for the parent compound as well as the tested novel aminoglycoside. […] Other sisomicin derivatives were also tested for ototoxicity.

Data set [2] concerns E. coli. Put plainly: E. coli assay of minimal inhibitory (MIC) and minimal bactericidal (MBC) concentrations. The data set is classed as cell-based. The following applies: FIGS. 1A and 1B. The protocol:
FIGS. 1A and 1B are bar graphs showing antimicrobial activities of a variety of sisomicin derivatives (MS=methyl sulfonyl, PS=phenyl sulfonyl, BZ=benzoyl, SiRho=rhodamine; and 1N and 3″ indicate substituents' position on sisomicin). The negative values reflect an arbitrary value indicating no detectable level of activity.
Both antimicrobial activity and ototoxicity in several of the synthesized compounds were assessed. To test antimicrobial activity, an E. coli assay was used to test both minimal inhibitory concentrations (MIC) as well as minimal bactericidal concentrations (MBC). A cross section of results was presented in FIG. 1, for control and a variety of tested compounds. […] Antimicrobial activity remained stable for each compound over time.

Data set [3] relates to mouse. Put plainly: LD50 after intraperitoneal injection in mouse model. The data set is classed as in vivo. To be noted: FIG. 5.
The test system of data set [4] is mouse. To be noted: in vivo.

Regarding `CN[C@@H]1[C@@H](O)[C@@H](O[C@@H]2[C@@H](O)[C@H](O[C@H]3OC(CN)=CC[C@H]3N)[C@@H](N)C[C@H]2NC(=O)c2ccccc2)OC[C@]1(C)O` [1N benzoyl sisomicin, 1-benzoyl sisomicin], the “less toxic than sisomicin (ototoxicity)” value in data set [1] (1 h) was found to be 30%.

For the molecule `CN[C@@H]1[C@@H](O)[C@@H](O[C@@H]2[C@@H](O)[C@H](O[C@H]3OC(CN)=CC[C@H]3N)[C@@H](N)C[C@H]2NS(=O)(=O)c2ccccc2)OC[C@]1(C)O` [1N phenyl sulfonyl sisomicin, 1-Benzenesulfonyl-sisomicin], the “less toxic than sisomicin (ototoxicity)” value in data set [1] (1 h) is given as “about 80%”.

In the case of `CN([C@@H]1[C@@H](O)[C@@H](O[C@@H]2[C@@H](O)[C@H](O[C@H]3OC(CN)=CC[C@H]3N)[C@@H](N)C[C@H]2NS(C)(=O)=O)OC[C@]1(C)O)S(C)(=O)=O` [1N,3″N-methyl sulfonyl sisomicin, 1,3″-N-bis-methylsulfonyl sisomicin], the “ototoxicity compared in words” value in data set [1] (1 h) is listed as “about equally non-ototoxic as 1N-methyl sulfonyl sisomicin”.

Regarding `CN([C@@H]1[C@@H](O)[C@@H](O[C@@H]2[C@@H](O)[C@H](O[C@H]3OC(CN)=CC[C@H]3N)[C@@H](N)C[C@H]2NS(=O)(=O)c2ccccc2)OC[C@]1(C)O)S(=O)(=O)c1ccccc1` [1N,3″N-phenyl sulfonyl sisomicin, 1,3″-dibenzenesulfonyl-sisomicin], the “ototoxicity compared in words” value in data set [1] is reported as “about equally ototoxic as sisomicin”.

As usually defined, the Kd is a measure of binding affinity in units of concentration. As to `CN[C@@H]1[C@@H](O)[C@@H](O[C@@H]2[C@@H](O)[C@H](O[C@H]3OC(CN)=CC[C@H]3N)[C@@H](N)C[C@H]2NS(C)(=O)=O)OC[C@]1(C)O` [1N-methyl sulfonyl sisomicin, 1-N-methylsulfonyl sisomicin], the “antimicrobial activity (MIC, MBC)” value in data set [2] is on record as “retained antimicrobial activity”. For the same molecule, in data set [1], binding was characterised by a dissociation constant (Kd at 1 h) of 1500 µM, the “fold less toxic than the parent compound” value is reported as “more than ten-fold shift in sensitivity for toxicity”, the “hair cell loss at any of the cochlea regions tested” value is “did not cause any hair cell loss” and the “hair cells in stained tissue (FIG. 2)” value is recorded as “no hair cell loss”. In addition, in data set [1] (1 h), the “fold less toxic than the parent compound” value is reported as “more than 10 ×”. The “LD50 relative to LD50 of the parent sisomicin (fold higher)” value in data set [3] is recorded as 3 ×. Also, the “hair cell loss in histological preparations of the cochlea” value in data set [4] is on record as “no loss of hair cells”.

Take `CN(C(=O)c1ccccc1)[C@@H]1[C@@H](O)[C@@H](O[C@@H]2[C@@H](O)[C@H](O[C@H]3OC(CN)=CC[C@H]3N)[C@@H](N)C[C@H]2N)OC[C@]1(C)O` [3″N-benzoyl sisomicin, 3″-Benzoyl sisomicin]: in data set [1] (1 h), the “less toxic than sisomicin (ototoxicity)” value was “about 60%”.

As for `CN([C@@H]1[C@@H](O)[C@@H](O[C@@H]2[C@@H](O)[C@H](O[C@H]3OC(CN)=CC[C@H]3N)[C@@H](N)C[C@H]2N)OC[C@]1(C)O)S(C)(=O)=O` [3″N-methyl sulfonyl sisomicin, 3″-methylsulfonyl sisomicin], in data set [1] (1 h), the “ototoxicity compared in words” value was “about equally non-ototoxic as 1N-methyl sulfonyl sisomicin”.

For the molecule `CN([C@@H]1[C@@H](O)[C@@H](O[C@@H]2[C@@H](O)[C@H](O[C@H]3OC(CN)=CC[C@H]3N)[C@@H](N)C[C@H]2N)OC[C@]1(C)O)S(=O)(=O)c1ccccc1` [3″N-phenyl sulfonyl sisomicin, 3″-benzenesulfonyl-sisomicin], the “ototoxicity compared in words” value in data set [1] is “about equally ototoxic as sisomicin”.

As for `CN[C@@H]1[C@@H](O)[C@@H](O[C@@H]2[C@@H](O)[C@H](O[C@H]3OC(CN)=CC[C@H]3N)[C@@H](N)C[C@H]2N)OC[C@]1(C)O` [sisomicin, reference compound], in data set [1], the equilibrium dissociation constant (Kd) at 1 h amounted to 120 µM and the “hair cells in stained tissue (FIG. 2)” value is recorded as “no hair cells remained”. Moreover, in data set [1] (1 h), the “outer hair cells killed, apex of cochlea” value is on record as “about 60%”; the “outer hair cells killed, base and middle of cochlea” value is “more than 90%”. In addition, the “hair cell loss in histological preparations of the cochlea” value in data set [4] is reported as “significant hair cell loss”.
